Measured values published in patent US11191850B2, “Molecular probes for detection and imaging of pancreatic cancer” (Portland State University, priority 2016, dated 2021).
Entries after “also recorded” stand apart in the source; their conditions may differ.

Assays:
[1] = UV-Vis absorption and fluorescence spectroscopy; format: physicochemical; parameters: Brightness: unit not given here
Source text: UV-Vis absorption and fluorescence spectroscopy. UV-Vis spectra were collected with a Cary 50 UV-Vis spectrophotometer at room temperature, using a 1-cm quartz cuvette. Fluorescence spectra were collected on a Cary Eclipse fluorescence spectrophotometer (Agilent Technologies). All absorbance spectra were reference corrected. Fluorescence spectra were corrected for the wavelength dependent response of the R928 photomultiplier tube using a manufacturer generated correction file. Quantum yields are reported as the average of multiple measurements using multiple references. Excitation emission matrices (EEMs) were collected over various spectral regions, using 5-nm step sizes for emission and 10-nm step sizes for excitation. The band pass for excitation and emission was 5 to 10 nm.
Probes 1-13 were screened for pH and solvent sensitivity. Solvent sensitivity or dependence is at least partially attributable to differences in the equilibria between tautomeric forms of the compounds in the various solvents evaluated. The fluorophore concentrations ranged from 10-15 μM. Aqueous solutions contained 10% DMSO and 12.5 mM HCl, 12.5 mM NaOH, or pH 7.4 phosphate buffer.

Capan-1 cells [2] = test: Cell viability by CellTiter-Blue assay; format: cell-based, human; conditions: Capan-1, 24 h incubation, read-out: IC50 (cytotoxicity, cell viability)
Experimental: Cell culture. The human PDAC cell line Capan-1 was obtained from Dr. Rosalie Sears' laboratory and maintained in RPMI medium (Gibco) in a humid atmosphere at 37° C. with 5% CO2. All media were supplemented with 10% (v/v) fetal bovine serum (FBS), and 1% (v/v) penicillin/streptomycin. The cell viability was determined by Cell Titer-Blue® assay (Promega Corporation). Monolayers of 10^4 Capan-1 cells were seeded in triplicate in 96 well plates and incubated with decreasing concentration from 100 μM of each compound in growth media containing 10% FBS. After 24 h incubation time, 20 μL of CellTiter-Blue® reagent was added into each well, and culture cells were incubated for additional 2 h. Fluorescence intensity in each well was recorded at 560/590 nm in a SpectraMax® M5 Microplate Reader (Molecular Devices, LLC). The half maximal inhibitory concentration (IC50) of these three compounds were determined from interpolating values in the graph (% cell viability vs. fluorophore concentration). For comparison of cellular uptake rate in Capan-1 cells, absorbance of media was measured as background, and absorbance of supernatant was obtained to determine the cellular uptake by using absorbance of 10 μM fluorophore in cell free media as standard reference.
In vitro cell viability was assessed for compounds 2, 12 and 13 in a representative PDAC cell line, Capan-1. […]

Capan-1 cells [3] = test: Subcellular localization by live cell imaging with organelle trackers; format: cell-based, human; conditions: Capan-1, 0.5 μM, 1 h incubation
Experimental: In vitro live cell imaging. Monolayers of 10^4 Capan-1 cells were seeded in triplicate in 8 well plates and incubated for 24 h in growth media containing 10% FBS and allowed to attach. For subcellular colocalization experiments, media was extracted and cells were washed with PBS, and phenol red-free growth medium was added to each well. Organelle trackers were added to each well, and incubated with the compound (final concentration 0.5 μM) of interest for 1 h. Cells were then washed with PBS and then fixed with 2% paraformaldehyde (PFA). Fluorescence microscopy was carried out using a Zeiss inverted microscope with an Axioscan fluorescence camera for imaging. Final concentration of organelle trackers used in this experiments, DAPI (4,6-diamidino-2-phenylindole) 0.5 μM, MitoTracker® Green (benzoxazolium 2-[3-[5,6-dichloro-1,3-bis[[4-(chloromethyl)-phenyl]methyl]-1,3-dihydro-2H-benzimidazol-2-ylidene]-1-propenyl]-3-methyl-chloride 201860-17-5v, ThermoFisher Scientific) 0.5 μM, and ER-Tracker™ Green (BODIPY® FL dye and glibenclamide; ThermoFisher Scientific) 1 μM.
The subcellular localization of 2, 12 and 13 was investigated in Capan-1 cells after 1 h incubation time. […] FIGS. 6A, 7A, and 8A show the red fluorescence of the three compounds, respectively, as well as blue fluorescence with DAPI (4,6-diamidino-2-phenylindole) FIGS. 6C, 7C, 8C) and green fluorescence with organelle-specific fluorescent probes—ER-Tracker™ Green (BODIPY® FL dye and glibenclamide; ThermoFisher Scientific) (FIGS. 6E, 7E, 8E) and MitoTracker® Green (benzoxazolium 2-[3-[5,6-dichloro-1,3-bis[[4-(chloromethyl)-phenyl]methyl]-1,3-dihydro-2H-benzimidazol-2-ylidene]-1-propenyl]-3-methyl-chloride201860-17-5v; ThermoFisher Scientific) (FIGS. 6G, 7G, 8G). Also shown are composite overlays of (i) phase contrast+compound fluorescence (FIGS. 6B, 7B, 8B), (ii) DAPI+compound fluorescence (FIGS. 6D, 7D, 8D), (iii) DAPI+ER-Tracker™ Green+compound fluorescence (FIGS. 6F, 7F, 8F), and (iv) DAPI+MitoTracker® Green+compound fluorescence (FIGS. 6H, 7H, 8H).

PDAC tumor tissue = test: Intraoperative fluorescence imaging and ex vivo microscopy in PDAC tumor bearing mice; parameters: species or system mouse; conditions: 100 nmol systemic, n=5 PDAC mice, monitored over 1.5 h
Experimental: Systemic administration of fluorescent compounds. […] Fluorophores were diluted in PBS.
In vivo biodistribution imaging.
Ex vivo fluorescence microscopy, pathology, and immunofluorescence staining. Resected pancreas tissue from compound 12 in vivo biodistribution studies with PDAC tumor bearing mice was fixed with 2% PFA for 12 h, flash frozen in optimal cutting temperature (OCT) compound with liquid nitrogen, and stored at −80° C. Cryosections were cut at 10 μm onto Superfrost Plus slides (Fisherbrand, Fisher Scientific). Slides were mounted with Fluoromount-G (Southern Biotech, Birmingham, Ala.) and coverslipped. […] Images were acquired on an Axio Observer inverted fluorescence microscope (Zeiss, Thornwood, N.Y.) at 10, 20, or 40× magnification. […] Color images were collected using an Axiocam 105 camera (Zeiss) and fluorescence images were collected using an Axiocam 506 camera (Zeiss) where a 605±35 nm or 525±25 nm bandpass emission filter was used for compound 12 or Atto 488 fluorescence image collection, respectively.
Compound 12 was systemically administered to n=5 genetically modified PDAC mice. Pancreas specific fluorescence was monitored over 1.5 h. […] FIGS. 12B and 12C show real-time intraoperative fluorescence imaging of compound 12 in the PDAC mice. […]

pancreas tissue = test: Ex vivo staining of pancreas tissue from healthy and PDAC mice; parameters: species or system mouse
Source text: Thus 12 enabled ex vivo staining to distinguish the features of healthy and PDAC tissue.

healthy CD-1 mice = test: In vivo biodistribution imaging after systemic administration
Experimental: Animals. Approval for the use of all animals in this study was obtained from the Institutional Animal Care and Use Committee (IACUC) at Oregon Health and Science University (OHSU). Male CD-1 mice weighing 22-24 g were purchased from Charles River Laboratories (Wilmington, MA). […] All animals were placed on 5V75 chlorophyll free diet from TestDiet (St. Louis, Mo.) 1 week prior to any imaging studies. Prior to surgery, mice were anaesthetized with 100 mg/kg ketamine and 10 mg/kg xylazine (Patterson Veterinary, Devens, Mass.). The peritoneal cavity was surgically exposed by removal of overlaying skin and muscle tissue to image fluorophore biodistribution following intravenous injection.
Intraoperative fluorescence imaging system. In vivo murine biodistribution images and macroscopic images of resected tissues were acquired using a custom-built small animal imaging system capable of real time color and fluorescence imaging. The imaging system consists of a QImaging EXi Blue monochrome camera (Surrey, British Columbia, Calif.) for fluorescence detection with a removable Bayer filter for collecting co-registered color and fluorescence images. A PhotoFluor II light source (89 North, Burlington, Vt.) was focused onto the surgical field through a liquid light guide and used unfiltered for white light illumination. […] All filters were obtained from Chroma technology (Bellows Falls, Vt.). Camera exposure times ranged from 50 to 200 ms for fluorescence image collection.
Systemic administration of fluorescent compounds. […] Fluorophores were diluted in PBS. For comparison with previous studies, 120 nmol Methylene Blue was injected systemically. Mice were administered blank PBS for control images (n=3 mice per group, 5 groups).
In vivo biodistribution imaging. […] The peritoneal cavity was exposed and images were collected so that the bladder, adipose tissue, intestine, kidney, liver, muscle, pancreas, spleen, and stomach were visible within the field of view. For initial biodistribution studies images were collected immediately after injection and at 5, 15, 30, 60, 120, and 240 min following injection. […] Vehicle injected control animals were imaged on the same time course as fluorophore injected animals for initial testing or immediately following injection only for studies involving MB or PDAC tumor bearing mice to assess tissue autofluorescence for comparison to injected animals.
Fluorophore biodistribution kinetics were measured using region of interest analysis on images collected of the peritoneal cavity. Mean fluorescence intensities in each organ or tissue type were measured from images collected at each time point. All intensities were normalized to the muscle intensity at that time point by dividing by the measured muscle intensity. Using the normalized fluorescence intensities for each organ or tissue type, mean intensities were calculated for each group.
Upon completion of initial biodistribution studies, animals were euthanized and their organs were resected.

[4] = pH 7.4 buffer, excited at 480 nm
[5] = pH 7.4 buffer, methyl ether derivatives
[6] = pH 7.4 phosphate buffer, 10% DMSO, methyl ether derivatives

Question: Which results are given for `COC(=O)c1ccccc1C1=c2cc3c4c(c2Oc2c1ccc1cccc(OC)c21)CCC[N+]=4CCC3` [Compound 12, 15-methoxy-9-(2-(methoxycarbonyl)phenyl)-1,2,3,5,6,7-hexahydrobenzo[7,8]chromeno[2,3-f]pyrido[3,2,1-ij]quinolin-4-ium chloride]?
Answer: pH and solvent sensitivity of UV and fluorescence spectra ([1]; 10-15 μM, aqueous 10% DMSO with HCl, NaOH or pH 7.4 buffer, various solvents): insensitive to variations in pH or solvent; Quantum yield [1, 4]: 11.38%; λmax em [1, 4]: 622 nm; Brightness [1, 5]: 2022; Stokes shift [1, 5]: 40 nm; Extinction coefficient [1, 6]: 17764 M⁻¹ cm⁻¹; λmax abs [1, 6]: 582 nm; IC50 (Capan-1 cells [2]): 17.8 µM; site of intracellular localization (Capan-1 cells [3]): extensive accumulation in the mitochondria; accumulation in PDAC tumor tissue vs surrounding tissue (PDAC tumor tissue): significantly higher than in the surrounding healthy tissue; also recorded: significantly higher than in the surrounding tissues and specific for the malignant cells; ex vivo staining localization, cancerous (PDAC) tissue (pancreas tissue; PDAC mouse pancreas): localized in the PDAC-associated ductal epithelial cells; ex vivo staining localization, healthy mouse pancreas tissue (pancreas tissue; healthy mouse pancreas): uptake of 12 in its abundant acinar cell population; clearance route and rate (healthy CD-1 mice; 100 nmol i.v. (MB 120 nmol)): both renal and hepatic clearance; also recorded: cleared more slowly than compound 2; also recorded: greater hepatic excretion rate; organ accumulation (in vivo biodistribution) (healthy CD-1 mice; 100 nmol i.v., 4 h distribution phase): accumulated in the kidney, pancreas, and intestine; fluorescence SBR in the pancreas compared to surrounding organs (healthy CD-1 mice; 4-h time point): highest and most persistent fluorescence SBR in the pancreas; uptake in normal pancreas tissue relative to MB (healthy CD-1 mice; 12 100 nmol vs MB 120 nmol, i.v.): 4 fold; pancreas penetration / specificity (healthy CD-1 mice; normal pancreas, systemic administration): improved pancreas specificity
